Data published in ChEMBL document CHEMBL5465560, “Selectivity Literature for EUbOPEN Chemogenomic Library” (2024).

Key:
Misshapen-like kinase 1 = Misshapen-like kinase 1 (Homo sapiens, UniProt Q8N4C8); experiment: Selectivity interaction (Kinase panel (literature)) EUB0001199aCl MINK1; details: at 1 µM
[1] = biological target: Homeodomain-interacting protein kinase 2 (Homo sapiens, UniProt Q9H2X6); experiment: Selectivity interaction (KinomeScan (DiscoverX)) EUB0000607a HIPK2; details: at 10 µM
[2] = biological target: T1, Casein kinase I isoform alpha-like (Homo sapiens) (UniProt Q8N752); experiment: Selectivity interaction (KinomeScan (DiscoverX)) EUB0000607a CSNK1A1L; details: at 10 µM
T1 sequence (whole entry): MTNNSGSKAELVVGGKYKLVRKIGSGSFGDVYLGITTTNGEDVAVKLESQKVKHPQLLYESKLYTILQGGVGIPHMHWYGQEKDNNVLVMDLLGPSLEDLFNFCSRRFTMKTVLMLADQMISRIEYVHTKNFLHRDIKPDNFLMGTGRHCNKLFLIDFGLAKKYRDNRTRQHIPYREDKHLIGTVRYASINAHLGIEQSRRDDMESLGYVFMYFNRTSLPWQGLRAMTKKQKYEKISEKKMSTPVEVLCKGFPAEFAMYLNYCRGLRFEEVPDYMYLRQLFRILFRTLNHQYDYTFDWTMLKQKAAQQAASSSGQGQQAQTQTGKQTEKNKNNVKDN

[3] = biological target: Rho-associated protein kinase 1 (Homo sapiens) (UniProt Q13464); experiment: Selectivity interaction (KinomeScan (DiscoverX)) EUB0000607a ROCK1; details: at 10 µM
[4] = test system: Leucine-rich repeat serine/threonine-protein kinase 2 (Homo sapiens), Q5S007 [R1441C]; experiment: (§1) Selectivity interaction (ProQinase) EUB0000171b LRRK2
[5] = biological target: Leucine-rich repeat serine/threonine-protein kinase 2 (Homo sapiens, UniProt Q5S007); experiment: as §1
[6] = test system: Leucine-rich repeat serine/threonine-protein kinase 2 (Homo sapiens), Q5S007 [I2020T]; experiment: as §1
[7] = test system: Leucine-rich repeat serine/threonine-protein kinase 2 (Homo sapiens), Q5S007 [G2019S]; experiment: as §1
[8] = biological target: Serine/threonine-protein kinase 26 (Homo sapiens, UniProt Q9P289); experiment: Selectivity interaction (KinomeScan (DiscoverX)) EUB0000595a STK26; details: at 10 µM
[9] = biological target: Tyrosine-protein kinase Lyn (Homo sapiens, UniProt P07948); experiment: Selectivity interaction (Kinase screening (Upstate/Millipore)) EUB0000604a LYN
[10] = biological target: MAP kinase-interacting serine/threonine-protein kinase 2 (Homo sapiens, UniProt Q9HBH9); experiment: Selectivity interaction (KinomeScan (DiscoverX)) EUB0000655a MKNK2; details: at 10 µM
[11] = biological target: Tyrosine-protein kinase ABL1 (Homo sapiens, UniProt P00519); experiment: Selectivity interaction (KinomeScan (DiscoverX)) EUB0000045b ABL1; details: at 1 µM
[12] = biological target: T2, Atypical kinase COQ8B, mitochondrial (Homo sapiens) (UniProt Q96D53); experiment: Selectivity interaction (KinomeScan (DiscoverX)) EUB0001079a ADCK4; details: at 1 µM
T2 sequence (whole entry): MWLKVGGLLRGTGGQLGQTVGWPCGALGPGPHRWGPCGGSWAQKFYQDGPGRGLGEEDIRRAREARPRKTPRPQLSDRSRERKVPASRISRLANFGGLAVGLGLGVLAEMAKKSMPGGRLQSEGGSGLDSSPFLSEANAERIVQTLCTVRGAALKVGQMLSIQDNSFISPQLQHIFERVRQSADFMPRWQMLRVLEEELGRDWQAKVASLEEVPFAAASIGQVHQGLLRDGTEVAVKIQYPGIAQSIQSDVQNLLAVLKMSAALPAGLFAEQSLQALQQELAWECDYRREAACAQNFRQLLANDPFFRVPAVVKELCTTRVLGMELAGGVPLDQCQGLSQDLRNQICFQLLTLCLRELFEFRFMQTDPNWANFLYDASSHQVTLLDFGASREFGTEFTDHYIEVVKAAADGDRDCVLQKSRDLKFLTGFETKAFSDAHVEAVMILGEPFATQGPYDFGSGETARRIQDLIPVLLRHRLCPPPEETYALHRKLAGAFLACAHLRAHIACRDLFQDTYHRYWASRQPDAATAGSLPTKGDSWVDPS

[13] = biological target: Histone acetyltransferase KAT2A (Homo sapiens) (UniProt Q92830); experiment: Selectivity interaction (Bromodomain panel (DSF asssay)) EUB0000270b KAT2A
[14] = biological target: Non-receptor tyrosine-protein kinase TYK2 (Homo sapiens, UniProt P29597); experiment: Selectivity interaction (KinomeScan (DiscoverX)) EUB0000092b TYK2; details: at 10 µM
[15] = biological target: T3, Non-receptor tyrosine-protein kinase TNK1 (Homo sapiens) (UniProt Q13470); experiment: Selectivity interaction (Kinase panel (Carna Biosciences)) EUB0001542aTs TNK1; details: at 1 µM
T3 sequence (whole entry): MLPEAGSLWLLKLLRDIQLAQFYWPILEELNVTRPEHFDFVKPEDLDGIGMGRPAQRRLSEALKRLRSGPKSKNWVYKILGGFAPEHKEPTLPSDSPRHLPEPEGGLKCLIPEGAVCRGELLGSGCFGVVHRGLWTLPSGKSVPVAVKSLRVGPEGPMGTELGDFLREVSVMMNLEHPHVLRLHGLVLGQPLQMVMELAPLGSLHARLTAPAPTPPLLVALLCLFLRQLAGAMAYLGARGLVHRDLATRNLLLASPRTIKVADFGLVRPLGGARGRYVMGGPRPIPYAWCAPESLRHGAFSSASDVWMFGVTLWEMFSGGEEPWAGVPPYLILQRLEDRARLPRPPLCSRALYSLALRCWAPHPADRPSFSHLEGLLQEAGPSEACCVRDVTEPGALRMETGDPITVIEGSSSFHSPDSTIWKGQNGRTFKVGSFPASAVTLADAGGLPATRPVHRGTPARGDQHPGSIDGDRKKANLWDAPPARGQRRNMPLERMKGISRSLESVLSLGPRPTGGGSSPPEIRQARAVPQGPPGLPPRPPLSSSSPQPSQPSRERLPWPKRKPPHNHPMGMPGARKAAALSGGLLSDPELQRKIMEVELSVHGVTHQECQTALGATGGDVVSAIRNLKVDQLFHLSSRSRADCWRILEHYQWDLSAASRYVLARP

[16] = biological target: T4, Dual specificity mitogen-activated protein kinase kinase 3 (Homo sapiens) (UniProt P46734); experiment: Selectivity interaction (KinomeScan (DiscoverX)) EUB0000618a MAP2K3; details: at 10 µM
T4 sequence (whole entry): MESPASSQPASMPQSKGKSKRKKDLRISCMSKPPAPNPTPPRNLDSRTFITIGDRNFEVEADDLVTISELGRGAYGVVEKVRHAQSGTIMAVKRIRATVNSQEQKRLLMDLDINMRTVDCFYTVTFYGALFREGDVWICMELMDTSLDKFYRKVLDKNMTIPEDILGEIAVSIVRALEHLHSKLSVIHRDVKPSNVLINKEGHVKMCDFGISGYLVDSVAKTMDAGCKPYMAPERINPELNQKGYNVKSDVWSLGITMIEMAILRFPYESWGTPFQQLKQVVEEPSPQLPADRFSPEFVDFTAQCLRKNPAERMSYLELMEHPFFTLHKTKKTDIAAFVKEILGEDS

Leucine-rich repeat serine/threonine-protein kinase 2 (Homo sapiens), Q5S007 [I2020T], sequence (Q5S007 whole entry I2020T): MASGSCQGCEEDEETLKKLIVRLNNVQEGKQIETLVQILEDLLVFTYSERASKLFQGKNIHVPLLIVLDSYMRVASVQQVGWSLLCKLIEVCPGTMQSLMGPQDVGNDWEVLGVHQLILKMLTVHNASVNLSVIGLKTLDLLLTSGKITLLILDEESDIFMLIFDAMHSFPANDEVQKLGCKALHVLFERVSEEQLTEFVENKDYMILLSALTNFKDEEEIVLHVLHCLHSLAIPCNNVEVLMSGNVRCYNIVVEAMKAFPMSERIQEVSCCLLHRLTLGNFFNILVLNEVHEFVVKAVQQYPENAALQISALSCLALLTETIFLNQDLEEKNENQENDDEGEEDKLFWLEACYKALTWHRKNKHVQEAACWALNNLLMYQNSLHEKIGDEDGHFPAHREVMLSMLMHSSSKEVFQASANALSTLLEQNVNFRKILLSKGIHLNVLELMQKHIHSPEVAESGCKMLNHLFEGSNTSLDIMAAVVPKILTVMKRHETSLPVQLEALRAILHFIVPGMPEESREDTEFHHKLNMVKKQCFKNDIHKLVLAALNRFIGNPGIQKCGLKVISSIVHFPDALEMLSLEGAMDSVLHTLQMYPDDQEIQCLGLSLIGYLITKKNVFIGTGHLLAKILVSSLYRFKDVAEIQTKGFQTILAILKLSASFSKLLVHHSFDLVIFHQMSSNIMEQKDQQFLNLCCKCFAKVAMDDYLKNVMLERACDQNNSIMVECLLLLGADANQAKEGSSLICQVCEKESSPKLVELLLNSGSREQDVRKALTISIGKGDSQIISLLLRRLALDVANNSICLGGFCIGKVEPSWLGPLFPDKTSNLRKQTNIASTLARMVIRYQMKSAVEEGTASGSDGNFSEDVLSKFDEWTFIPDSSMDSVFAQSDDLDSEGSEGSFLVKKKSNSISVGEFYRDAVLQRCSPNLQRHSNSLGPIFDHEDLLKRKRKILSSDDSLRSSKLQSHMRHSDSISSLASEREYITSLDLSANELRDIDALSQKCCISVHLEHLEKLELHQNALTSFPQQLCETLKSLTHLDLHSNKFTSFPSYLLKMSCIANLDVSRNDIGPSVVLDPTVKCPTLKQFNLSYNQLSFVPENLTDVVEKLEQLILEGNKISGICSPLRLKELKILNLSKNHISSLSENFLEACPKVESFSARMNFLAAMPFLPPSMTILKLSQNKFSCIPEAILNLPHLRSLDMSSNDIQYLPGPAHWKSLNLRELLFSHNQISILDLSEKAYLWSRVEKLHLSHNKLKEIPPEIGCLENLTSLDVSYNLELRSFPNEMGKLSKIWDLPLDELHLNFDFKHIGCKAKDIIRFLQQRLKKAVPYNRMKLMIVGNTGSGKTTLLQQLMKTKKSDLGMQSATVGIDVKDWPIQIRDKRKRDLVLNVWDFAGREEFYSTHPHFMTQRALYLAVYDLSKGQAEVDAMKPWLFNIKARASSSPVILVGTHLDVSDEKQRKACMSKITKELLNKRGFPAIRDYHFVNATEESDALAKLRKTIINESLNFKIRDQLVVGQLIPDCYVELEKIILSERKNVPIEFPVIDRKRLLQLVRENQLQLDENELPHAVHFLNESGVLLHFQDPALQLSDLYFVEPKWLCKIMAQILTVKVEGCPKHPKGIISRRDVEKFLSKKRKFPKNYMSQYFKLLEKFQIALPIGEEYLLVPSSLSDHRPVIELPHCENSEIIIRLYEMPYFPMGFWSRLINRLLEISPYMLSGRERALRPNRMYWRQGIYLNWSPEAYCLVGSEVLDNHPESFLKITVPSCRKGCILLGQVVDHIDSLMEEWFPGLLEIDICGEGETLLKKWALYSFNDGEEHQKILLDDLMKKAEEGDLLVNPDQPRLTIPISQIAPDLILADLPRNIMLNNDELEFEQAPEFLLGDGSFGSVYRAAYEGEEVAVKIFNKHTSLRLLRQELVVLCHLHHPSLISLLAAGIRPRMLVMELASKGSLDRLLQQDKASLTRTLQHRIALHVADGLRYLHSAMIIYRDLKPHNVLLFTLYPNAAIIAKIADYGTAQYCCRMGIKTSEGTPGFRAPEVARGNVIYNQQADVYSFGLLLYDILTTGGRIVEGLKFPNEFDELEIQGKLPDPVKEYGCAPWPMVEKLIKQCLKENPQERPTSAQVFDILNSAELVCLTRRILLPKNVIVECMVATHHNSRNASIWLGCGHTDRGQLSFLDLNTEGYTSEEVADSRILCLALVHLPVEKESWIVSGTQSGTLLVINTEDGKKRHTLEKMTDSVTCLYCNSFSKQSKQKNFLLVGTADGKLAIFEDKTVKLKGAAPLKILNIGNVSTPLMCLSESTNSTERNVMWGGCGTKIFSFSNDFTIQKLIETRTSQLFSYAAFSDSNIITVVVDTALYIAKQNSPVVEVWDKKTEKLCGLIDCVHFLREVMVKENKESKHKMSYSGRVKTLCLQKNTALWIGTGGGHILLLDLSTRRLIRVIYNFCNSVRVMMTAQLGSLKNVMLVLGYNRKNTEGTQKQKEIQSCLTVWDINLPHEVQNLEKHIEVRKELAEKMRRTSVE
Leucine-rich repeat serine/threonine-protein kinase 2, sequence (Q5S007 whole entry): as the sequence (Q5S007 whole entry I2020T) above, with T2020I counted along it
Leucine-rich repeat serine/threonine-protein kinase 2 (Homo sapiens), Q5S007 [R1441C], sequence (Q5S007 whole entry R1441C): as the sequence (Q5S007 whole entry I2020T) above, with R1441C, T2020I counted along it
Leucine-rich repeat serine/threonine-protein kinase 2 (Homo sapiens), Q5S007 [G2019S], sequence (Q5S007 whole entry G2019S): as the sequence (Q5S007 whole entry I2020T) above, with G2019S, T2020I counted along it
Tyrosine-protein kinase ABL1, sequence (P00519 whole entry): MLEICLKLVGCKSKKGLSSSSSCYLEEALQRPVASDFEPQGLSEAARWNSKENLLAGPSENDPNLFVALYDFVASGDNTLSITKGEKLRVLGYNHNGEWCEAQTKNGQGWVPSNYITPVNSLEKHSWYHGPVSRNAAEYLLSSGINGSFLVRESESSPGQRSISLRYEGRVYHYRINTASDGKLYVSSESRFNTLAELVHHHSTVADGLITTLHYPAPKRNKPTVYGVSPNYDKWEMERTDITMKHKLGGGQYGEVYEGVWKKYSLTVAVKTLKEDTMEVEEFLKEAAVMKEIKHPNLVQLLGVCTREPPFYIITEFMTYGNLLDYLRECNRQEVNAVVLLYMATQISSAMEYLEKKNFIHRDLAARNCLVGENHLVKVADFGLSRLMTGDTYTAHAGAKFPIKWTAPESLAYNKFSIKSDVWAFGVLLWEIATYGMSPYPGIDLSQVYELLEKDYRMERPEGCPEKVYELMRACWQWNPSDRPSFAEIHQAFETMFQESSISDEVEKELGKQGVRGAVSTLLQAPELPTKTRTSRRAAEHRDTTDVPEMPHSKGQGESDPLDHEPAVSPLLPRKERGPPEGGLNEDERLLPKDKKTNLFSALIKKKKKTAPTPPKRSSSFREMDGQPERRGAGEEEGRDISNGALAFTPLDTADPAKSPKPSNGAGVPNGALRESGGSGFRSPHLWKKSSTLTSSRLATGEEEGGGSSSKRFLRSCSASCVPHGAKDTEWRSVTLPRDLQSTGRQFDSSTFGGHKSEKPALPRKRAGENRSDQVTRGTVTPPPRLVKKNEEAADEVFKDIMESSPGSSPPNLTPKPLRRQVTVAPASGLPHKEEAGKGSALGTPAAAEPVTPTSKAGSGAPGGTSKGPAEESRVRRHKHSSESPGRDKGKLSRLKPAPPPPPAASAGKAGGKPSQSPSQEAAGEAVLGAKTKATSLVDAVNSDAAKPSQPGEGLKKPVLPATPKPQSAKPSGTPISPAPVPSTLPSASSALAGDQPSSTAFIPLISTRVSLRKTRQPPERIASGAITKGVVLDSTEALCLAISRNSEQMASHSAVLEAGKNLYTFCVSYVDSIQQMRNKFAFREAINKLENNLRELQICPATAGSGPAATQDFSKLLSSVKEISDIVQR
Rho-associated protein kinase 1 (Homo sapiens), sequence (Q13464 2-1354 limits assumed): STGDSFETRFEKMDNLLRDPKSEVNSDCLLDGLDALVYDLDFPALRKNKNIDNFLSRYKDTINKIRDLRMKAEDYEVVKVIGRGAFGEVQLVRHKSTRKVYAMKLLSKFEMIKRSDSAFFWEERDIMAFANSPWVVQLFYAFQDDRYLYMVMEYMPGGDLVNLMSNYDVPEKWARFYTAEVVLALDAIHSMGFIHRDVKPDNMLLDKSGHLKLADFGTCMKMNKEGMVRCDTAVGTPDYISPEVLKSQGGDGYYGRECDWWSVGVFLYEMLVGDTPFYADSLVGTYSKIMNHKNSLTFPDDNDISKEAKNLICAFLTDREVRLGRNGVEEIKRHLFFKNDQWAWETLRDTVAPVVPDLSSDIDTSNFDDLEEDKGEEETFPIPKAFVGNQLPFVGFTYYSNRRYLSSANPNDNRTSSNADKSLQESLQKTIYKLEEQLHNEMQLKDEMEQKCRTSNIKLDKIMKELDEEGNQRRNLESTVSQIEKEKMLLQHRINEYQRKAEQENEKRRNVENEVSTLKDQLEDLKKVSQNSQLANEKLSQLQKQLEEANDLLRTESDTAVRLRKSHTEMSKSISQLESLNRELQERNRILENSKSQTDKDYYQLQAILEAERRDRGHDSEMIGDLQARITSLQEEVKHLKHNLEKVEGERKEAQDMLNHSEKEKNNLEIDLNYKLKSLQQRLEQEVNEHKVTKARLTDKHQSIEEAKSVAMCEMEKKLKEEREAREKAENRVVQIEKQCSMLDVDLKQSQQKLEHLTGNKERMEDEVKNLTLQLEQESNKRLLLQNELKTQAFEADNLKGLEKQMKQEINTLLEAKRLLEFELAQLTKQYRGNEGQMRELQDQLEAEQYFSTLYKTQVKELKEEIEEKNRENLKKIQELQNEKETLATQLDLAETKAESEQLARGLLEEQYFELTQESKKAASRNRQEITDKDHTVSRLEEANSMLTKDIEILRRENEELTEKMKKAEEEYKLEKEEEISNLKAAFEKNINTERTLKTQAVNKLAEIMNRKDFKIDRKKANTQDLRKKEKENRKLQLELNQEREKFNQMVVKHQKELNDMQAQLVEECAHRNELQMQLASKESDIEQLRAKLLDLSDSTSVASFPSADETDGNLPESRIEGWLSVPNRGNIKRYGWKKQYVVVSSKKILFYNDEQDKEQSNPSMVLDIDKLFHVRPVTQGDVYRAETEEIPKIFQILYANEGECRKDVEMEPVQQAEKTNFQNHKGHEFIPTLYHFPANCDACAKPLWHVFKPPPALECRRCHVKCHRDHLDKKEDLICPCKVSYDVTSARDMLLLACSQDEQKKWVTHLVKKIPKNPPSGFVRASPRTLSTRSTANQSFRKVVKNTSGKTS

CN1Cc2nccc(-c3cn(C)nc3-c3ccc(F)cc3)c2C1=O
% of inhibition (Misshapen-like kinase 1): 42%

CNC(=O)Nc1ccc(-c2nc(N3CC4CCC(C3)O4)c3cnn(C4CCC5(CC4)OCCO5)c3n2)cc1
% of control [1]: 100% | % of control [2]: 100% | % of control [3]: 100%

C=CC(=O)Nc1cccc(C(=O)Nc2ccc(Nc3cc(-c4[nH]c(SC)nc4C)ccn3)cc2)c1
% of control ([4]; at 1 µM): 80% | % of control ([4]; at 5 µM): 51% | % of control ([5]; at 1 µM): 77% | % of control ([5]; at 5 µM): 47% | % of control ([6]; at 1 µM): 71% | % of control ([6]; at 5 µM): 49% | % of control ([7]; at 1 µM): 72% | % of control ([7]; at 5 µM): 52%

COCC(=O)NC/C=C/c1ccc2ncnc(Nc3ccc(Oc4ccc(C)nc4)c(C)c3)c2c1 [CP-724714]
% of control [8]: 90%

Cc1cnc(Nc2ccc(F)cc2Cl)nc1-c1c[nH]c(C(=O)N[C@H](CO)c2cccc(Cl)c2)c1
% of inhibition [9]: 7%

CN(C)CCOc1ccc(-c2nc(-c3ccncc3)c(-c3ccc4c(c3)CC/C4=N\O)[nH]2)cc1
% of control [10]: 95%

C=CC(=O)Nc1cc(-n2c(=O)ccc3cnc4ccc(-c5ccc(NS(C)(=O)=O)cc5)cc4c32)ccc1C
% of control [11]: 100%

Nc1cnc(N2CCc3cc(S(=O)(=O)Nc4c(F)cc(Cl)cc4F)cc(N4CCCC4=O)c32)nc1 [TP-020n]
% of control [12]: 100%

Cc1cc(CN)cc(C)c1-c1ncn(C)c1-c1cncn1C
dTM [13]: -2.29 K

CCC(=O)N1CCN(c2ccc(-n3c(=O)ccc4cnc5ccc(-c6cnc7ccccc7c6)cc5c43)cc2C(F)(F)F)CC1
% of control [14]: 55%

Cn1cc(Nc2nccc(N3CC4CCC(C3)N4C(=O)[C@@H]3CC3(F)F)n2)cn1
% of inhibition [15]: 64%

O[C@H]1CC[C@H](Nc2ncc3nc(Nc4c(F)cc(F)cc4F)n([C@H]4CCOC4)c3n2)CC1
% of control [16]: 43%
